Usually logP stands for the decadic logarithm of the partition coefficient of the neutral form, usually between octanol and water. The low end stands for lower lipophilicity, the high end for higher lipophilicity. Consider `Cc1[nH]c(Br)nc1[N+](=O)[O-]`, for which the lipophilicity (logP) is 0.86. The compound `Cn1cnc([N+](=O)[O-])c1N` registered a log partition coefficient (logP) of -1. As for `Cn1c([N+](=O)[O-])cnc1Cl`, the figure is 0.62; as for `Cn1cc([N+](=O)[O-])nc1Br`, 0.33. As for `Cc1[nH]cnc1[N+](=O)[O-]`, the figure is 0.23; as for `Cn1cc([N+](=O)[O-])nc1Cl`, 0.19; as for `O=[N+]([O-])c1nc[nH]c1Cl`, 0.78. The result for `Cn1cnc([N+](=O)[O-])c1` reads -0.44; that for `COc1c([N+](=O)[O-])ncn1C`, 0.19.

In the case of `O=[N+]([O-])c1nc[nH]c1Br`, the logP is 0.85.

`Cn1cnc(Cl)c1[N+](=O)[O-]` gave a logP of 0.69. For `Cc1nc([N+](=O)[O-])c(Br)[nH]1`, the logP was 1.14. As for `Cc1nc(Br)n(C)c1[N+](=O)[O-]`, the figure is 0.82; as for `Cn1cnc(Br)c1[N+](=O)[O-]`, 0.77; as for `Cn1cnc([N+](=O)[O-])c1Br`, 0.36. As for `Cn1ccnc1[N+](=O)[O-]`, the figure is -0.17. Consider `COc1nc[nH]c1[N+](=O)[O-]`, for which the log partition coefficient (logP) worked out at 0.13. Regarding `Cn1cncc1[N+](=O)[O-]`, the logP was found to be 0.13.

Turning to `COc1nc(C)[nH]c1[N+](=O)[O-]`, the lipophilicity (logP) was 0.21.

Values taken from the OPERA property sets (Mansouri et al. 2018).
